Values quoted from earlier work in US20230228654A1, “Blood Sampling Device and Method for PEth Measurement” (CAPITAINER AB, priority 2020, published 2023).

Test system: PLD
Conditions: Schröck et al, Alcohol 2018; cited from earlier work

Compound: O=C(NCCN1CCC(n2c(=O)[nH]c3ccccc32)CC1)c1cc2cc(F)ccc2[nH]1 [FIPI, 5-fluoro-2-indolyl-deschlorohalopemide]
- potency as PLD inhibitor: low potency

Compound: O=C(NCCN1CCC(n2c(=O)[nH]c3cc(Cl)ccc32)CC1)c1ccc(F)cc1 [halopemide]
- potency as PLD inhibitor: low potency
